From patent publication US20170184612A1, “USE OF LEUKOCYTES AND NOVEL BIOMARKERS IN THE DIAGNOSIS, CONFIRMATION, AND TREATMENT OF A NEUROLOGICAL DISORDER” (The Trustees of Columbia University in the City of New York, priority 2014, published 2017)

How the values were obtained:
[1] = tested on: peripheral blood mononuclear cells (PBMC), T cells; assay: ELISpot assay, gamma-interferon release (SFC) after stimulation with a-synuclein epitope pools; assay type: cell-based, human; details: for Pool +: IFNg, Pool Stimulated, number of donors with a positive response, Donors tested 1
Protocol: (§1) Blood from age matched controls and PD patients were obtained and mononuclear cells were isolated by gradient centrifugation.
(§2) Release of the cytokines gamma-interferon, which measures activation of CD4+ and/or CD8+ T cells, and the interleukin, IL-5, which measures activation of CD4+ T cells was measured by ELISpot assay. […] After 22 hours of stimulation at 37 C, the cells were removed and release of cytokines was measured by colorimetric detection of spot-forming cells (SFC). Confirmed release of cytokine is determined by the presence of a minimum of 20 SFC per million cells.
(§3) The binding algorithms in SubAim 1 predict how well the peptides would bind to MHC if present, but not if they are present in patients. To determine this, the presence of T cell response against the candidate antigens by patient blood-derived peripheral blood mononuclear cells (PBMC) is assessed by ELISPOT assays upon stimulation with the peptides. This assay detects and quantifies cytokine release (in this case, IFNγ and IL-5) from specific activated T cells.
(§4) Data were obtained from blood samples (25 ml) from 44 PD patients and 24 age-matched controls. The experiments were conducted blindly. PBMCs from these samples were isolated and exposed to pools comprising the 122 candidate class I and class II antigens and phosphorylated S129 epitopes generated in Subaim 1. For the PBMCs responsive to the pooled peptides, the response was then deconvoluted to identify individual epitopes.
(§5) PMBC fractions are recovered by standard methods with Ficoll gradient and T cells expansion (Oseroff et al., 2010). The methods for the analysis of T cell reactions and measurement of cytokines production using the enzyme-linked immunosorbent spot (ELISPOT) assay are published in analogous experiments to discover antigens in multiple sclerosis (Lolli et al., 2013) and in hay fever allergens (Oseroff et al., 2010). T cell responses are determined by measuring IFNγ and IL-5 release by ELISPOT. Statistical analysis of differences between populations is expected to be non-parametric and analyzed with the U-Mann-Whitney test. If there were a normal distribution of response, which is a priori unlikely as some patients have no T cell response, with an SD=1, 8 patients per group would be required to provide a p>90% that the study detect a >2 fold difference at a two-sided 0.05 significance level.

[2] = tested on: peripheral blood mononuclear cells (PBMC), T cells; assay: ELISpot assay, IL-5 release (SFC) after stimulation with a-synuclein epitope pools; assay type: cell-based, human
Protocol: as §1, §2, §3, §4, §5

[3] = Patients Summary, PD patients, of donors tested (peptide)
[4] = Patients Summary, PD patients, single peptide
[5] = number of donors positive to the single peptide, second 'Pool Stimulated' section (from r296), 12 donors tested
[6] = peptide + / donors tested (peptide), second 'Pool Stimulated' section (from r296), 12 donors tested
[7] = single peptide, second 'Pool Stimulated' section (from r296), 12 donors tested
[8] = pool 'Phospho' (phosphorylated peptides)
[9] = Patients Summary, Phospho pool peptides
[10] = Patients Summary, Phospho pool peptides, 10 donors tested
[11] = peptides of pool 'Poshpho', 8 donors tested
[12] = peptides of pool 'Poshpho', 8 donors tested, number of donors positive

Row | Substance | Pool + [1] | IFNg Peptide + (donors positive to the peptide) [1, 3] | IFNg Response Frequency [1, 4] [%] | IFNg Total SFC [1, 4] [SFC] | IFNg Peptide + [1, 5] | IFNg Response Frequency [1, 6] [%] | IFNg Total SFC [1, 7] [SFC] | IL-g Peptide + (donors positive to the peptide) [2, 3] | IL-g Response Frequency [2, 4] [%] | IL-g Total SFC [2, 4] [SFC] | IL-g Peptide + [2, 5] | IL-g Response Frequency [2, 6] [%] | IL-g Total SFC [2, 7] [SFC] | IL-g Avg SFC [2, 7] [SFC] | other results
1 | 3521.0019 (APGKTKEGV; listed as Homo sapiens) | 0 | 0 | 0 | 0 | 0 | 0 | 0 | 0 | 0 | 0 | 0 | 0 | 0 | – | –
2 | 3521.004 (DNEAYEMPSE; listed as Homo sapiens) | 0 | 0 | 0 | 0 | 0 | 0 | – | 0 | 0 | 0 | 0 | 0 | 0 | – | Pool + [1, 8]: 0; IFNg Avg SFC [1, 9]: 364 SFC; IFNg Response Frequency [1, 9]: 20%; IFNg Total SFC [1, 9]: 727 SFC; IFNg Peptide + (donors positive to the peptide) [1, 10]: 2; IFNg Response Frequency [1, 11]: 0%; IFNg Total SFC [1, 11]: 0 SFC; IFNg Peptide + [1, 12]: 0; IL-g Avg SFC [2, 9]: 203 SFC; IL-g Response Frequency [2, 9]: 20%; IL-g Total SFC [2, 9]: 406.3 SFC; IL-g Peptide + (donors positive to the peptide) [2, 10]: 2; IL-g Response Frequency [2, 11]: 0%; IL-g Total SFC [2, 11]: 0 SFC; IL-g Peptide + [2, 12]: 0
3 | 3521.0075 (KQGVAEAPGKTKEGV; listed as Homo sapiens) | 1 | 3 | 38 | 209 | 0 | 0 | 0 | 1 | 13 | 58 | 1 | 50 | 147 | 147 | IFNg Avg SFC [1, 4]: 70 SFC; IL-g Avg SFC [2, 4]: 58 SFC
4 | 3521.0011 (QVTNVGGAV; listed as Homo sapiens) | 0 | 0 | 0 | 0 | 0 | 0 | 0 | 0 | 0 | 0 | 0 | 0 | 0 | – | –
5 | 3521.0064 (GVVHGVATV; listed as Homo sapiens) | 1 | 0 | 0 | 0 | 0 | 0 | 0 | 0 | 0 | 0 | 1 | 50 | 75 | 75 | –
6 | 3521.0029 (NVGGAVVTGV; listed as Homo sapiens) | 0 | 0 | 0 | 0 | 0 | 0 | 0 | 0 | 0 | 0 | 0 | 0 | 0 | – | –
7 | 3521.0013 (VTNVGGAVV; listed as Homo sapiens) | 0 | 1 | 50 | 209 | 0 | 0 | 0 | 0 | 0 | 0 | 0 | 0 | 0 | – | IFNg Avg SFC [1, 4]: 209 SFC
8 | 3521.0024 (DPDNEAYEM; listed as Homo sapiens) | 0 | 0 | 0 | 0 | – | 50 | 93.3 | 0 | 0 | 0 | 1 | 50 | 300 | 300 | –
9 | 3521.0018 (MPVDPDNEA; listed as Homo sapiens) | 0 | 0 | 0 | 0 | 0 | 0 | – | 0 | 0 | 0 | 0 | 0 | 0 | – | –
10 | 3521.0056 (YEMPSEEGYQ; listed as Homo sapiens) | 0 | 0 | 0 | 0 | 0 | 0 | – | 0 | 0 | 0 | 1 | 50 | 89 | 89 | Pool + [1, 8]: 0; IFNg Response Frequency [1, 9]: 0%; IFNg Total SFC [1, 9]: 0 SFC; IFNg Peptide + (donors positive to the peptide) [1, 10]: 0; IFNg Avg SFC [1, 11]: 100 SFC; IFNg Response Frequency [1, 11]: 13%; IFNg Total SFC [1, 11]: 100 SFC; IFNg Peptide + [1, 12]: 1; IL-g Response Frequency [2, 9]: 0%; IL-g Total SFC [2, 9]: 0 SFC; IL-g Peptide + (donors positive to the peptide) [2, 10]: 0; IL-g Avg SFC [2, 11]: 167 SFC; IL-g Response Frequency [2, 11]: 13%; IL-g Total SFC [2, 11]: 167 SFC; IL-g Peptide + [2, 12]: 1
11 | 3521.0015 (KTKEQVTNV; listed as Homo sapiens) | 0 | 0 | 0 | 0 | 0 | 0 | 0 | 0 | 0 | 0 | 0 | 0 | 0 | – | –
12 | 3521.0035 (SIAAATGFVK; listed as Homo sapiens) | 1 | 1 | 25 | 1946 | 0 | 0 | 0 | 1 | 25 | 1898 | 1 | 50 | 536 | 536 | IFNg Avg SFC [1, 4]: 1946 SFC; IL-g Avg SFC [2, 4]: 1898 SFC
13 | 3521.0031 (YVGSKTKEGV; listed as Homo sapiens) | 0 | 1 | 17 | 153 | – | – | – | 0 | 0 | 0 | – | – | – | – | IFNg Avg SFC [1, 4]: 153 SFC
14 | 352100.45 (KTKKGVVHGV; listed as Homo sapiens) | 0 | – | – | – | – | – | – | – | – | – | – | – | – | – | –
